Data from US4684664A, “Derivatives of β-(4-isocyano-1,2,3,4-diepoxycyclopentyl) acrylic acid” (Kureha Kagaku Kogyo Kabushiki Kaisha, priority 1984, dated 1987).
Converted amounts (≈) assume the structure as drawn.

Tests used:
Format in all cases: cell-based
Proteus vulgaris OX-19 = test: Antibacterial activity, agar-dilution MIC, organism No. 20; conditions: Proteus vulgaris, OX19; Organism No. 20, bouillon-agar; read-out: Minimum Inhibitory Concentration
Summary of the method: (§1)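 Testing uses agar dilution in bouillon agar. MIC = lowest inhibiting concentration, μg/ml medium.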

[1] = test system: Candida albicans IAM 4905; test: Antifungal activity, agar-dilution MIC, organism No. 29; conditions: Candida albicans, IAM4905; Organism No. 29, bouillon-agar; read-out: Minimum Inhibitory Concentration
Summary of the method: as §1

[2] = test system: Proteus rettgeri IFO 3850; test: Antibacterial activity, agar-dilution MIC, organism No. 22; conditions: Providencia rettgeri, IFO3850; Organism No. 22, bouillon-agar; read-out: Minimum Inhibitory Concentration
Summary of the method: as §1

[3] = test system: Pseudomonas aeruginosa PAO 1; test: Antibacterial activity, agar-dilution MIC, organism No. 17; conditions: Pseudomonas aeruginosa, PAO1; Organism No. 17, bouillon-agar; read-out: Minimum Inhibitory Concentration
Summary of the method: as §1

[4] = test system: Salmonella shottmuelleri 8006; test: Antibacterial activity, agar-dilution MIC, organism No. 11; conditions: Salmonella, 8006; Organism No. 11, bouillon-agar; read-out: Minimum Inhibitory Concentration
Summary of the method: as §1

[5] = test system: Salmonella typhimurium IID 971; test: Antibacterial activity, agar-dilution MIC, organism No. 8; conditions: Salmonella enterica; Organism No. 8, bouillon-agar; read-out: Minimum Inhibitory Concentration
Summary of the method: as §1

[6] = test system: Streptococcus pyogenes IFO 3340; test: Antibacterial activity, agar-dilution MIC, organism No. 26; conditions: Streptococcus pyogenes, IFO3340; Organism No. 26, bouillon-agar; read-out: Minimum Inhibitory Concentration
Summary of the method: as §1

[7] = test system: Klebsiella pneumoniae PCI-602; test: Antibacterial activity, agar-dilution MIC, organism No. 7; conditions: Klebsiella pneumoniae, PCI602; Organism No. 7, bouillon-agar; read-out: Minimum Inhibitory Concentration
Summary of the method: as §1

Proteus vulgaris HX-19 = test: Antibacterial activity, agar-dilution MIC, organism No. 21; conditions: Proteus vulgaris, HX19; Organism No. 21, bouillon-agar; read-out: Minimum Inhibitory Concentration
Summary of the method: as §1

[8] = test system: Streptococcus pyogenes Cook; test: Antibacterial activity, agar-dilution MIC, organism No. 4; conditions: Streptococcus pyogenes; Organism No. 4, bouillon-agar; read-out: Minimum Inhibitory Concentration
Summary of the method: as §1

[9] = test system: Staphylococcus aureus Terajima; test: Antibacterial activity, agar-dilution MIC, organism No. 2; conditions: Staphylococcus aureus; Organism No. 2, bouillon-agar; read-out: Minimum Inhibitory Concentration
Summary of the method: as §1

[10] = test system: Salmonella enteritidis G 14; test: Antibacterial activity, agar-dilution MIC, organism No. 12; conditions: Salmonella enterica, ENTERITIDIS; Organism No. 12, bouillon-agar; read-out: Minimum Inhibitory Concentration
Summary of the method: as §1

[11] = test system: Salmonella paratyphi-A 1015; test: Antibacterial activity, agar-dilution MIC, organism No. 10; conditions: Salmonella enterica, PARATYPHI, read-out: Minimum Inhibitory Concentration
Summary of the method: as §1

[12] = test system: Bacillus subtilis ATCC 6633; test: Antibacterial activity, agar-dilution MIC, organism No. 14; conditions: Bacillus subtilis, ATCC6633; Organism No. 14, bouillon-agar; read-out: Minimum Inhibitory Concentration
Summary of the method: as §1

[13] = test system: Proteus mirabilis IFO 3849; test: Antibacterial activity, agar-dilution MIC, organism No. 19; conditions: Proteus mirabilis, IFO3849; Organism No. 19, bouillon-agar; read-out: Minimum Inhibitory Concentration
Summary of the method: as §1

[14] = test system: Staphylococcus aureus MS 353; test: Antibacterial activity, agar-dilution MIC, organism No. 3; conditions: Staphylococcus aureus, MS353; Organism No. 3, bouillon-agar; read-out: Minimum Inhibitory Concentration
Summary of the method: as §1

[15] = test system: Streptococcus faecium IFO 3826; test: Antibacterial activity, agar-dilution MIC, organism No. 27; conditions: Enterococcus faecium, IFO3826; Organism No. 27, bouillon-agar; read-out: Minimum Inhibitory Concentration
Summary of the method: as §1

[16] = test system: Pseudomonas aeruginosa NCTC 10490; test: Antibacterial activity, agar-dilution MIC, organism No. 16; conditions: Pseudomonas aeruginosa, NCTC10490; Organism No. 16, bouillon-agar; read-out: Minimum Inhibitory Concentration
Summary of the method: as §1

Salmonella typhi 901 = test: Antibacterial activity, agar-dilution MIC, organism No. 9; conditions: Salmonella enterica, TYPHI, read-out: Minimum Inhibitory Concentration
Summary of the method: as §1

[17] = test system: Micrococcus luteus ATCC 9341; test: Antibacterial activity, agar-dilution MIC, organism No. 25; conditions: Micrococcus luteus, ATCC9341; Organism No. 25, bouillon-agar; read-out: Minimum Inhibitory Concentration
Summary of the method: as §1

[18] = test system: Mycoplasma pneumoniae IID817; test: Antimycoplasmal activity, MIC by phenol red colour change, organism No. 28; conditions: Mycoplasma, IID817; Organism No. 28, PPLO broth + 1% glucose, 37° C.; read-out: Minimum Inhibitory Concentration (MIC)
Protocol: Mycoplasma pneumoniae IID817 was used as the test microorganism in a culture medium prepared by adding 1% of glucose to "PPLO broth (manufactured by Difco Co.) liquid culture medium" at 37° C. with phenol red as an indicator, thereby culturing the test microorganism.

[19] = test system: Proteus morganii IFO 3848; test: Antibacterial activity, agar-dilution MIC, organism No. 18; conditions: Morganella morganii, IFO3848; Organism No. 18, bouillon-agar; read-out: Minimum Inhibitory Concentration
Summary of the method: as §1

[20] = test system: Escherichia coli NIHJ-JC-2; test: Antibacterial activity, agar-dilution MIC, organism No. 5; conditions: Escherichia coli, NIHJJC2; Organism No. 5, bouillon-agar; read-out: Minimum Inhibitory Concentration
Summary of the method: as §1

[21] = test system: Escherichia coli K12 C600 IAM 1264; test: Antibacterial activity, agar-dilution MIC, organism No. 6; conditions: Escherichia coli, IAM1264; Organism No. 6, bouillon-agar; read-out: Minimum Inhibitory Concentration
Summary of the method: as §1

Enterobacter cloacae 963 = test: Antibacterial activity, agar-dilution MIC, organism No. 24; conditions: Enterobacter cloacae, 963; Organism No. 24, bouillon-agar; read-out: Minimum Inhibitory Concentration
Summary of the method: as §1

[22] = test system: Serratia marcescens IAM 1184; test: Antibacterial activity, agar-dilution MIC, organism No. 13; conditions: Serratia marcescens, IAM1184; Organism No. 13, bouillon-agar; read-out: Minimum Inhibitory Concentration
Summary of the method: as §1

[23] = test system: Staphylococcus aureus FDA 209PJc-1; test: Antibacterial activity, agar-dilution MIC, organism No. 1; conditions: Staphylococcus aureus, FDA209PJC1; Organism No. 1, bouillon-agar; read-out: Minimum Inhibitory Concentration
Summary of the method: as §1

[24] = test system: Enterobacter aerogenes ATCC 13048; test: Antibacterial activity, agar-dilution MIC, organism No. 23; conditions: Klebsiella aerogenes, ATCC13048; Organism No. 23, bouillon-agar; read-out: Minimum Inhibitory Concentration
Summary of the method: as §1

[25] = test system: Aspergillus niger IFO 6342; test: Antifungal activity, agar-dilution MIC, organism No. 30; conditions: Aspergillus niger, IFO6342; Organism No. 30, bouillon-agar; read-out: Minimum Inhibitory Concentration
Summary of the method: as §1

[26] = test system: Pseudomonas aeruginosa IFO 3445; test: Antibacterial activity, agar-dilution MIC, organism No. 15; conditions: Pseudomonas aeruginosa, IFO3445; Organism No. 15, bouillon-agar; read-out: Minimum Inhibitory Concentration
Summary of the method: as §1

Row | Compound | MIC (Proteus vulgaris OX-19) [µg/mL] | MIC [1] [µg/mL] | MIC [2] [µg/mL] | MIC [3] [µg/mL] | MIC [4] [µg/mL] | MIC [5] [µg/mL] | MIC [6] [µg/mL] | MIC [7] [µg/mL] | MIC (Proteus vulgaris HX-19) [µg/mL] | MIC [8] [µg/mL] | MIC [9] [µg/mL] | MIC [10] [µg/mL] | MIC [11] [µg/mL] | MIC [12] [µg/mL] | MIC [13] [µg/mL] | MIC [14] [µg/mL] | MIC [15] [µg/mL] | MIC [16] [µg/mL] | MIC (Salmonella typhi 901) [µg/mL] | MIC [17] [µg/mL] | other results
1 | [C-]#[N+]C12CC3(/C=C/C(=O)OCC(C)C)OC3C1O2 (stereo not drawn) [compound 18] | 0.2 (≈ 0.802 µM) | 0.2 (≈ 0.802 µM) | 100 (≈ 401 µM) | > 200 | 0.78 (≈ 3.13 µM) | 12.5 (≈ 50.1 µM) | 1.56 (≈ 6.26 µM) | 1.56 (≈ 6.26 µM) | 0.1 (≈ 0.401 µM) | 0.78 (≈ 3.13 µM) | 12.5 (≈ 50.1 µM) | 6.25 (≈ 25.1 µM) | 1.56 (≈ 6.26 µM) | 0.78 (≈ 3.13 µM) | 6.25 (≈ 25.1 µM) | 3.13 (≈ 12.6 µM) | 12.5 (≈ 50.1 µM) | 200 (≈ 802 µM) | 3.13 (≈ 12.6 µM) | 1.56 (≈ 6.26 µM) | MIC [18]: < 0.2 µg/mL; MIC [19]: 3.13 µg/mL (≈ 12.6 µM); MIC [20]: 12.5 µg/mL (≈ 50.1 µM); MIC [21]: 12.5 µg/mL (≈ 50.1 µM); MIC (Enterobacter cloacae 963): 200 µg/mL (≈ 802 µM); MIC [22]: 200 µg/mL (≈ 802 µM); MIC [23]: 0.39 µg/mL (≈ 1.56 µM); MIC [24]: > 200 µg/mL; MIC [25]: 0.78 µg/mL (≈ 3.13 µM); MIC [26]: > 200 µg/mL
2 | [C-]#[N+]C12CC3(/C=C/C(=O)Nc4cccc(C(=O)O)c4)OC3C1O2 (stereo not drawn) [compound 52] | 50 (≈ 160 µM) | 100 (≈ 320 µM) | > 200 | > 200 | 50 (≈ 160 µM) | 100 (≈ 320 µM) | 100 (≈ 320 µM) | 200 (≈ 640 µM) | 50 (≈ 160 µM) | 50 (≈ 160 µM) | 50 (≈ 160 µM) | 50 (≈ 160 µM) | 50 (≈ 160 µM) | 200 (≈ 640 µM) | > 200 | 25 (≈ 80.1 µM) | 50 (≈ 160 µM) | > 200 | 50 (≈ 160 µM) | 25 (≈ 80.1 µM) | MIC [18]: < 0.2 µg/mL; MIC [19]: 12.5 µg/mL (≈ 40 µM); MIC [20]: 200 µg/mL (≈ 640 µM); MIC [21]: 200 µg/mL (≈ 640 µM); MIC (Enterobacter cloacae 963): > 200 µg/mL; MIC [22]: > 200 µg/mL; MIC [23]: 12 µg/mL (≈ 38.4 µM); MIC [24]: > 200 µg/mL; MIC [25]: 100 µg/mL (≈ 320 µM); MIC [26]: > 200 µg/mL
3 | [C-]#[N+]C12CC3(/C=C/C(=O)Nc4ccccc4OC)OC3C1O2 (stereo not drawn) [compound 55] | 6.25 (≈ 21 µM) | 3.13 (≈ 10.5 µM) | > 200 | > 200 | 3.13 (≈ 10.5 µM) | 50 (≈ 168 µM) | 6.25 (≈ 21 µM) | 0.39 (≈ 1.31 µM) | < 0.05 | 200 (≈ 670 µM) | 3.13 (≈ 10.5 µM) | 12.5 (≈ 41.9 µM) | 12.5 (≈ 41.9 µM) | 25 (≈ 83.8 µM) | > 200 | 0.78 (≈ 2.61 µM) | 200 (≈ 670 µM) | > 200 | 25 (≈ 83.8 µM) | < 0.05 | MIC [18]: < 0.2 µg/mL; MIC [19]: 6.25 µg/mL (≈ 21 µM); MIC [20]: 200 µg/mL (≈ 670 µM); MIC [21]: 200 µg/mL (≈ 670 µM); MIC (Enterobacter cloacae 963): > 200 µg/mL; MIC [22]: > 200 µg/mL; MIC [23]: 1.56 µg/mL (≈ 5.23 µM); MIC [24]: > 200 µg/mL; MIC [25]: 12.5 µg/mL (≈ 41.9 µM); MIC [26]: > 200 µg/mL
4 | [C-]#[N+]C12CC3(/C=C/C(=O)OC)OC3C1O2 (stereo not drawn) [Compound No. 1] | 6.25 (≈ 30.2 µM) | 6.25 (≈ 30.2 µM) | 25 (≈ 121 µM) | > 200 | 6.25 (≈ 30.2 µM) | 12.5 (≈ 60.3 µM) | 100 (≈ 483 µM) | 6.25 (≈ 30.2 µM) | 0.2 (≈ 0.965 µM) | 200 (≈ 965 µM) | 12.5 (≈ 60.3 µM) | 6.25 (≈ 30.2 µM) | 6.25 (≈ 30.2 µM) | 50 (≈ 241 µM) | 6.25 (≈ 30.2 µM) | 6.25 (≈ 30.2 µM) | 12.5 (≈ 60.3 µM) | > 200 | 3.13 (≈ 15.1 µM) | 6.25 (≈ 30.2 µM) | MIC [18]: < 0.2 µg/mL; MIC [19]: 6.25 µg/mL (≈ 30.2 µM); MIC [20]: 12.5 µg/mL (≈ 60.3 µM); MIC [21]: 12.5 µg/mL (≈ 60.3 µM); MIC (Enterobacter cloacae 963): 25 µg/mL (≈ 121 µM); MIC [22]: 200 µg/mL (≈ 965 µM); MIC [23]: 12.5 µg/mL (≈ 60.3 µM); MIC [24]: > 200 µg/mL; MIC [25]: 12.5 µg/mL (≈ 60.3 µM); MIC [26]: > 200 µg/mL
